Measured values published in PubChem BioAssay AID1963856 (Molecular Pharmacology Branch, DTP, NCI, 2024).

Test system: LG0567-F671-PDC KRAS tumor spheroid viability
Assay: Anticancer human tumor LG0567-F671-PDC patient-derived lung adenocarcinoma cell line growth inhibition [KRAS2]
Details: spheroids with HUVEC and MSC; for IC50: curve of first compound; for viability, T/C: stronger effect = lower value
Description: Multicellular complex tumor spheroid response to RAS pathway inhibitors in combination with a targeted agents in patient-derived cell lines with oncogenic KRAS variants from multiple cancer types
A high-throughput screen of multi-cell type tumor spheroids was designed to identify active combinations of targeted small molecules and KRAS pathway inhibitors. Complex spheroids include a stromal component modeled by human endothelial cells (HUVEC) and fibroblasts modeled by human mesenchymal stem cells (MSCs). The concentration ranges selected for each drug and investigational agent were based upon clinically achievable concentrations if the clinical Cmax of the agent was known.
Compounds. The drugs and investigational agents: BI-3406 (NSC825286), BAY-293 (NSC824723), batoprotafib (TNO155; NSC825523), sotorasib (AMG 510; NSC818433), MRTX1257 (NSC819558), elimusertib (BAY 1895344; NSC800525), molibresib (GSK525762; NSC774829), temuterkib (LY3214996; NSC803410), venetoclax (NSC766270), alisertib (NSC759677), olaparib (NSC753686), talazoparib (NSC767125), erdafitinib (NSC781556), ipatasertib (NSC767898), cabozantinib (NSC761068), nintedanib (NSC756659), abemaciclib (NSC768073), docetaxel (NSC628503), trametinib (NSC758246), and sapanisertib (NSC764658) were obtained from the National Cancer Institute (NCI) Developmental Therapeutics Program Chemical Repository. The FDA-approved anticancer drug set is available from the Developmental Therapeutics Program. […] The stock solutions were prepared in dimethyl sulfoxide (DMSO, Sigma-Aldrich, St. Louis, MO, cat. D2650) at 800-fold the tested concentration and stored at -70 degrees C prior to their use. All drugs and investigational agents were tested over a range starting from a high concentration at or near the clinical Cmax and decreasing in half-log increments. If the clinical Cmax for an agent had not been determined, the highest concentration tested was 10 microM.
Cell Culture. All cells were maintained in an incubator at 37 degrees C and 5% CO2 with 95% humidity. The PDC lines were cultured according to standard operating procedures established by the NCI PDMR (https://pdmr.cancer.gov/sops/default.htm). Briefly, all PDCs were thawed and cultured in Matrigel-coated flasks prepared with a working solution of 1X Ham's F-12 nutrient mix, without supplementation (Invitrogen, Waltham, MA, cat. 11765054), 100 U/mL penicillin-streptomycin (Invitrogen, cat. 15140122), and 2.5% Matrigel (Corning Inc., Corning, NY, cat. 354248) for the first three passages. All PDCs were cultured in complete DMEM/F-12 media containing advanced DMEM/F-12 (Invitrogen, cat. 12634028), 4.9% defined fetal bovine serum, heat inactivated (HyClone Laboratories Inc., Logan, UT, cat. SH30070.03HI), 389 ng/mL hydrocortisone (Sigma-Aldrich, cat. H4001), 9.7 ng/mL human EGF recombinant protein (Invitrogen, cat. PHG0313), 23.4 microg/mL adenine (Sigma-Aldrich, cat. A2786), 97.3 U/mL penicillin-streptomycin (Invitrogen, cat. 15140122), 1.9 mM L-glutamine (Invitrogen, cat. 25030081), and 9.7 microM Y-27632 dihydrochloride (Tocris Bioscience, Bristol, United Kingdom, cat. 1254). The PDCs were cultured in complete DMEM/F12 media without 9.7 microM Y-27632 dihydrochloride for at least two passages prior to the screen. The established cell line HOP-62 was cultured in RPMI 1640 medium, HEPES (Invitrogen, cat. 22400105) with 10% defined fetal bovine serum (HyClone Laboratories Inc., cat. SH30070.03) and 2 mM L-glutamine (Invitrogen, cat. 25030081). The pooled donor HUVEC were cultured in endothelial cell growth medium 2 (PromoCell, Heidelberg, Germany, cat. C-22011) and the hMSC were cultured in mesenchymal stem cell growth medium 2 (PromoCell, cat. C-28009). For all experiments, HUVEC and hMSC were used at passages </=5, while the malignant cell lines were used at passages </=15. […]
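Further: drug exposure lasted seven days after spheroids formed for three days.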
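Wherever viability, T/C is given: 100% = DMSO vehicle control viability.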

`CC(=O)OC12COC1CC(O)C1(C)C(=O)C(O)C3=C(C)C(OC(=O)C(O)C(NC(=O)OC(C)(C)C)c4ccccc4)CC(O)(C(OC(=O)c4ccccc4)C21)C3(C)C` (stereo not given) + COc1cc2nc(C)nc(NC(C)c3cc(N)cc(C(F)(F)F)c3)c2cc1OC1CCOC1 gave an IC50 (second compound 0.1 µM) greater than 3.16 µM, an IC50 (second compound 0.316 µM) of less than 0.01 µM and an IC50 (second compound 1 µM) greater than 3.16 µM. For the same molecule, the IC50 (second compound 3.16 µM) was less than 0.01 µM, the IC50 (second compound 10 µM) was greater than 3.16 µM and the viability, T/C (second compound 0.1 µM, first compound 0.01 µM) was 55.8%. The viability, T/C (second compound 0.1 µM, first compound 0.0316 µM) was 52.6%, the viability, T/C (second compound 0.1 µM, first compound 0.1 µM) was 53.9% and the viability, T/C (second compound 0.1 µM, first compound 0.316 µM) was 57.9%. The viability, T/C (second compound 0.1 µM, first compound 1 µM) was 72.3%, the viability, T/C (second compound 0.1 µM, first compound 3.16 µM) was 58.7% and the viability, T/C (second compound 0.316 µM, first compound 0.01 µM) was 48.6%. The viability, T/C (second compound 0.316 µM, first compound 0.0316 µM) was 40%, the viability, T/C (second compound 0.316 µM, first compound 0.1 µM) was 52.4% and the viability, T/C (second compound 0.316 µM, first compound 0.316 µM) was 45.4%. For the same molecule, the viability, T/C (second compound 0.316 µM, first compound 1 µM) was 51%, the viability, T/C (second compound 0.316 µM, first compound 3.16 µM) was 47.6% and the viability, T/C (second compound 1 µM, first compound 0.01 µM) was 54.9%. It also gave a viability, T/C (second compound 1 µM, first compound 0.0316 µM) of 69.2%, a viability, T/C (second compound 1 µM, first compound 0.1 µM) of 69.7% and a viability, T/C (second compound 1 µM, first compound 0.316 µM) of 70.5%. The viability, T/C (second compound 1 µM, first compound 1 µM) was 78.8%, the viability, T/C (second compound 1 µM, first compound 3.16 µM) was 50.3% and the viability, T/C (second compound 3.16 µM, first compound 0.01 µM) was 50.5%. It also gave a viability, T/C (second compound 3.16 µM, first compound 0.0316 µM) of 46.9%, a viability, T/C (second compound 3.16 µM, first compound 0.1 µM) of 56.3% and a viability, T/C (second compound 3.16 µM, first compound 0.316 µM) of 48.9%. For the same molecule, the viability, T/C (second compound 3.16 µM, first compound 1 µM) was 57.1%, the viability, T/C (second compound 3.16 µM, first compound 3.16 µM) was 59.1% and the viability, T/C (second compound 10 µM, first compound 0.01 µM) was 62.7%. It also gave a viability, T/C (second compound 10 µM, first compound 0.0316 µM) of 58.1%, a viability, T/C (second compound 10 µM, first compound 0.1 µM) of 53.8% and a viability, T/C (second compound 10 µM, first compound 0.316 µM) of 54.6%. For the same molecule, the viability, T/C (second compound 10 µM, first compound 1 µM) was 64.4% and the viability, T/C (second compound 10 µM, first compound 3.16 µM) was 62.2%.
